In PubChem BioAssay (NCI):
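Dose response: 5 concentrations. Exposure: 48 h. Format: 96-well plates. Endpoint: linear interpolation; highest concentration if not reached. Definition used: TGI = concentration required for complete inhibition of growth.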 Where a SMILES comes first, the peptide text is derived from it. The star is where a group is joined. Boc = CC(C)(C)OC(=O)*; OBn = c1ccc(CO*)cc1

Key:
Assay in all cases: NCI-60 cell line screen, 48 h
[1] = test system: OVCAR-4 ovarian
[2] = test system: MDA-N
[3] = test system: TK-10 renal
[4] = test system: COLO 205 colon
[5] = test system: SK-MEL-28 melanoma
[6] = test system: SNB-19 CNS
[7] = test system: NCI/ADR-RES ovarian
[8] = test system: KM12 colon
[9] = test system: PC-3 prostate
[10] = test system: SF-268 CNS
[11] = test system: DU-145 prostate
[12] = test system: OVCAR-8 ovarian
[13] = test system: SN12C renal
[14] = test system: OVCAR-5 ovarian
[15] = test system: RXF 393 renal
[16] = test system: SF-295 CNS
[17] = test system: UO-31 renal
[18] = test system: HOP-92 NSCLC
[19] = test system: SF-539 CNS
[20] = test system: M14 melanoma
[21] = test system: IGROV1 ovarian
[22] = test system: SW-620 colon
[23] = test system: HT29 colon
[24] = test system: CAKI-1 renal
[25] = test system: HCT-15 colon
[26] = test system: SNB-75 CNS
[27] = test system: OVCAR-3 ovarian
[28] = test system: A549 NSCLC
[29] = test system: SK-MEL-5 melanoma
[30] = test system: ACHN renal
[31] = test system: U251 CNS
[32] = test system: MDA-MB-231 breast
[33] = test system: NCI-H23 lung
[34] = test system: A498 renal
[35] = test system: NCI-H226 lung
[36] = test system: EKVX NSCLC
[37] = test system: MDA-MB-435
[38] = test system: HCT-116 colon
[39] = test system: MOLT-4 leukemia
[40] = test system: HCC-2998 colon
[41] = test system: UACC-257 melanoma
[42] = test system: CCRF-CEM leukemia
[43] = test system: SK-MEL-2 melanoma
[44] = test system: SK-OV-3 ovarian
[45] = test system: T-47D breast
[46] = test system: NCI-H460 lung
[47] = test system: 786-0 renal
[48] = test system: LOX IMVI melanoma
[49] = test system: HOP-62 NSCLC
[50] = test system: HL-60(TB) leukemia
[51] = test system: NCI-H522 lung
[52] = test system: K-562 leukemia
[53] = test system: RPMI-8226 leukemia
[54] = test system: UACC-62 melanoma
[55] = test system: MALME-3M melanoma
[56] = test system: HS 578T breast
[57] = test system: SR leukemia
[58] = test system: MCF7 breast

## CC(=O)N1C(=O)CC2(N=C(C)CC2=O)c2ccccc21 (centres undefined)
[1]
  TGI: > 10 µM
[2]
  TGI: > 10 µM
[3]
  TGI: > 10 µM
[4]
  TGI: > 10 µM
[5]
  TGI: > 10 µM
[6]
  TGI: > 10 µM
[7]
  TGI: > 10 µM
[8]
  TGI: > 10 µM
[9]
  TGI: > 10 µM
[10]
  TGI: > 10 µM
[11]
  TGI: > 10 µM
[12]
  TGI: > 10 µM
[13]
  TGI: > 10 µM
[14]
  TGI: > 10 µM
[15]
  TGI: > 10 µM
[16]
  TGI: > 10 µM
[17]
  TGI: > 10 µM
[18]
  TGI: > 10 µM
[19]
  TGI: > 10 µM
[20]
  TGI: > 10 µM
[21]
  TGI: > 10 µM
[22]
  TGI: > 10 µM
[23]
  TGI: > 10 µM
[24]
  TGI: > 10 µM
[25]
  TGI: > 10 µM
[26]
  TGI: > 10 µM
[27]
  TGI: > 10 µM
[28]
  TGI: > 10 µM
[29]
  TGI: > 10 µM
[30]
  TGI: > 10 µM
[31]
  TGI: > 10 µM
[32]
  TGI: > 10 µM
[33]
  TGI: > 10 µM
[34]
  TGI: > 10 µM
[35]
  TGI: > 10 µM
[36]
  TGI: > 10 µM
[37]
  TGI: > 10 µM
[38]
  TGI: > 10 µM

## CC(C)C(NC(=O)C(Cc1ccccc1)NC(=O)OC(C)(C)C)C(=O)NCC(=O)OCc1ccccc1 (stereo not drawn) (Boc-Phe-Val-Gly-OBn; configuration not given here)
[1]
  TGI: 58.8 µM
[2]
  TGI: 33.5 µM
[3]
  TGI: 27.1 µM
[4]
  TGI: 35.5 µM
[5]
  TGI: 30.5 µM
[6]
  TGI: 58.4 µM
[7]
  TGI: > 100 µM
[39]
  TGI: 39.7 µM
[9]
  TGI: 29.5 µM
[10]
  TGI: 28.2 µM
[11]
  TGI: 28.7 µM
[40]
  TGI: 31.9 µM
[41]
  TGI: 41.9 µM
[12]
  TGI: 35.6 µM
[42]
  TGI: 43 µM
[13]
  TGI: 34.5 µM
[14]
  TGI: 28.7 µM
[16]
  TGI: 34.6 µM
[43]
  TGI: 32 µM
[44]
  TGI: 28 µM
[45]
  TGI: 36.7 µM
[17]
  TGI: 51.6 µM
[46]
  TGI: 37.9 µM
[19]
  TGI: 43.3 µM
[20]
  TGI: 36.5 µM
[21]
  TGI: 27.8 µM
[22]
  TGI: 29.1 µM
[47]
  TGI: 32.1 µM
[23]
  TGI: 38.5 µM
[24]
  TGI: 33.7 µM
[25]
  TGI: 26.7 µM
[26]
  TGI: 36 µM
[27]
  TGI: 27.9 µM
[48]
  TGI: 30.2 µM
[30]
  TGI: 31.4 µM
[31]
  TGI: 32.2 µM
[32]
  TGI: 32.3 µM
[33]
  TGI: 36.1 µM
[49]
  TGI: 35.6 µM
[50]
  TGI: 34.4 µM
[34]
  TGI: > 100 µM
[51]
  TGI: 20.1 µM
[52]
  TGI: 23.9 µM
[36]
  TGI: 37.9 µM
[37]
  TGI: 21.9 µM
[38]
  TGI: 40 µM
[53]
  TGI: 42.5 µM
[54]
  TGI: 30.9 µM
[55]
  TGI: 37.5 µM

## CC[C@](O)(CC(=O)O[C@H]1C(=O)O[C@@H]2C[C@H]3C(C)=CC(=O)[C@@H](O)[C@]3(C)[C@H]3[C@@]4(O)OC[C@]32[C@@H]1[C@@H](C)[C@H]4O)C(C)C
[1]
  TGI: < 0.0144 µM
[2]
  TGI: < 0.01 µM
[3]
  TGI: < 0.01 µM
[56]
  TGI: < 0.01 µM
[4]
  TGI: < 0.01 µM
[5]
  TGI: < 0.01 µM
[6]
  TGI: < 0.01 µM
[7]
  TGI: 0.242 µM
[39]
  TGI: < 0.01 µM
[8]
  TGI: < 0.01 µM
[9]
  TGI: < 0.01 µM
[10]
  TGI: < 0.01 µM
[11]
  TGI: < 0.01 µM
[40]
  TGI: < 0.01 µM
[41]
  TGI: < 0.01 µM
[12]
  TGI: < 0.01 µM
[42]
  TGI: < 0.01 µM
[13]
  TGI: < 0.01 µM
[14]
  TGI: < 0.01 µM
[15]
  TGI: < 0.01 µM
[16]
  TGI: < 0.01 µM
[43]
  TGI: < 0.01 µM
[44]
  TGI: < 0.01 µM
[45]
  TGI: < 0.01 µM
[17]
  TGI: 0.0447 µM
[46]
  TGI: < 0.01 µM
[18]
  TGI: < 0.01 µM
[19]
  TGI: < 0.01 µM
[20]
  TGI: < 0.01 µM
[21]
  TGI: < 0.01 µM
[22]
  TGI: < 0.01 µM
[47]
  TGI: < 0.01 µM
[23]
  TGI: < 0.01 µM
[24]
  TGI: 0.0398 µM
[25]
  TGI: < 0.0117 µM
[26]
  TGI: < 0.01 µM
[57]
  TGI: < 0.01 µM
[27]
  TGI: < 0.01 µM
[48]
  TGI: < 0.01 µM
[29]
  TGI: < 0.01 µM
[30]
  TGI: < 0.01 µM
[31]
  TGI: < 0.01 µM
[32]
  TGI: < 0.0119 µM
[33]
  TGI: < 0.01 µM
[49]
  TGI: < 0.01 µM
[50]
  TGI: < 0.01 µM
[34]
  TGI: < 0.01 µM
[35]
  TGI: < 0.01 µM
[51]
  TGI: < 0.01 µM
[52]
  TGI: < 0.01 µM
[58]
  TGI: < 39.2 nM
[36]
  TGI: < 0.01 µM
[37]
  TGI: < 0.01 µM
[38]
  TGI: < 0.01 µM
[54]
  TGI: < 0.01 µM
[55]
  TGI: < 0.01 µM

## CCOC(=O)C(Cl)(NC(=O)NC(Cl)(C(=O)OCC)C(F)(F)F)C(F)(F)F (centres undefined)
[2]
  TGI: > 100 µM
[56]
  TGI: > 100 µM
[4]
  TGI: > 100 µM
[5]
  TGI: > 100 µM
[6]
  TGI: > 100 µM
[7]
  TGI: > 100 µM
[39]
  TGI: > 100 µM
[9]
  TGI: > 100 µM
[10]
  TGI: > 100 µM
[40]
  TGI: > 100 µM
[41]
  TGI: > 100 µM
[42]
  TGI: > 100 µM
[13]
  TGI: > 100 µM
[14]
  TGI: > 100 µM
[15]
  TGI: > 100 µM
[43]
  TGI: > 100 µM
[44]
  TGI: > 100 µM
[17]
  TGI: > 100 µM
[19]
  TGI: > 100 µM
[47]
  TGI: > 100 µM
[23]
  TGI: > 100 µM
[25]
  TGI: > 100 µM
[26]
  TGI: > 100 µM
[57]
  TGI: > 100 µM
[48]
  TGI: > 100 µM
[30]
  TGI: > 100 µM
[31]
  TGI: > 100 µM
[33]
  TGI: > 100 µM
[50]
  TGI: > 100 µM
[34]
  TGI: > 100 µM
[52]
  TGI: > 100 µM
[38]
  TGI: > 100 µM
[53]
  TGI: > 100 µM

## O=c1[nH]n(Cc2ccccc2Cl)c2ccc([N+](=O)[O-])cc12
[1]
  TGI: > 100 µM
[2]
  TGI: > 100 µM
[3]
  TGI: > 100 µM
[56]
  TGI: > 100 µM
[4]
  TGI: > 100 µM
[5]
  TGI: > 100 µM
[6]
  TGI: > 100 µM
[7]
  TGI: > 100 µM
[39]
  TGI: > 100 µM
[8]
  TGI: > 100 µM
[10]
  TGI: > 100 µM
[11]
  TGI: > 100 µM
[40]
  TGI: > 100 µM
[41]
  TGI: > 100 µM
[12]
  TGI: > 100 µM
[42]
  TGI: > 100 µM
[13]
  TGI: > 100 µM
[14]
  TGI: > 100 µM
[15]
  TGI: 57.9 µM
[43]
  TGI: > 100 µM
[17]
  TGI: > 100 µM
[46]
  TGI: > 100 µM
[18]
  TGI: 52 µM
[19]
  TGI: > 100 µM
[20]
  TGI: > 100 µM
[21]
  TGI: > 100 µM
[22]
  TGI: > 100 µM
[47]
  TGI: > 100 µM
[23]
  TGI: > 100 µM
[24]
  TGI: > 100 µM
[25]
  TGI: > 100 µM
[26]
  TGI: > 100 µM
[57]
  TGI: > 100 µM
[27]
  TGI: > 100 µM
[28]
  TGI: > 100 µM
[48]
  TGI: > 100 µM
[29]
  TGI: 52.8 µM
[30]
  TGI: > 100 µM
[31]
  TGI: > 100 µM
[32]
  TGI: > 100 µM
[33]
  TGI: > 100 µM
[49]
  TGI: > 100 µM
[50]
  TGI: > 100 µM
[34]
  TGI: 64.3 µM
[35]
  TGI: > 100 µM
[51]
  TGI: > 100 µM
[52]
  TGI: > 100 µM
[36]
  TGI: > 100 µM
[37]
  TGI: > 100 µM
[38]
  TGI: > 100 µM
[53]
  TGI: > 100 µM
[54]
  TGI: > 100 µM
[55]
  TGI: > 100 µM
